Measurements: patent publication US20240050571A1, “CARBORANE HYDROXAMIC ACID MATRIX METALLOPROTEINASE INHIBITORS AND AGENTS FOR BORON NEUTRON CAPTURE THERAPY” (LOYOLA UNIVERSITY OF CHICAGO, priority 2018, published 2024)

Tests used:
MMP-9 = MMP-9 (Homo sapiens (Human), UniProt P14780); experiment: Assay for inhibition of MMP (fluorescence), MMP-9; settings: read-out: MMP-9 IC50
MMP-2 = MMP-2 (Homo sapiens (Human), UniProt P08253); settings: read-out: MMP-2 IC50
Chain of MMP-2 (P08253 110-660 limits assumed): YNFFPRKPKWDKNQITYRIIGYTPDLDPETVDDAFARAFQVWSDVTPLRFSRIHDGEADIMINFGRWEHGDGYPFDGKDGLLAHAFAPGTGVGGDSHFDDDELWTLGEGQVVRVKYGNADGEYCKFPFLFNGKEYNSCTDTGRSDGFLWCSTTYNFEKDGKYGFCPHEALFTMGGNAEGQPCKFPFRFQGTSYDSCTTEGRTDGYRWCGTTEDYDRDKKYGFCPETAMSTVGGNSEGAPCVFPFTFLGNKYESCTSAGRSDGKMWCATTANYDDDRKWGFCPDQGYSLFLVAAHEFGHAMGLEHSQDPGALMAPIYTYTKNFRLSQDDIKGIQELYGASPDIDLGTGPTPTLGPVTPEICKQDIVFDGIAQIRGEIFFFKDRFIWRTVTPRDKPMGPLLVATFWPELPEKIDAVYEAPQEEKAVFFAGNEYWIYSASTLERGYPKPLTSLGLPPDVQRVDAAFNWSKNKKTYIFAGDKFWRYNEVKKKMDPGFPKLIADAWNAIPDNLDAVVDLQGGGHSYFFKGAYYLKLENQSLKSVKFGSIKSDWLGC

Chain of MMP-9 (P14780 107-707 limits assumed): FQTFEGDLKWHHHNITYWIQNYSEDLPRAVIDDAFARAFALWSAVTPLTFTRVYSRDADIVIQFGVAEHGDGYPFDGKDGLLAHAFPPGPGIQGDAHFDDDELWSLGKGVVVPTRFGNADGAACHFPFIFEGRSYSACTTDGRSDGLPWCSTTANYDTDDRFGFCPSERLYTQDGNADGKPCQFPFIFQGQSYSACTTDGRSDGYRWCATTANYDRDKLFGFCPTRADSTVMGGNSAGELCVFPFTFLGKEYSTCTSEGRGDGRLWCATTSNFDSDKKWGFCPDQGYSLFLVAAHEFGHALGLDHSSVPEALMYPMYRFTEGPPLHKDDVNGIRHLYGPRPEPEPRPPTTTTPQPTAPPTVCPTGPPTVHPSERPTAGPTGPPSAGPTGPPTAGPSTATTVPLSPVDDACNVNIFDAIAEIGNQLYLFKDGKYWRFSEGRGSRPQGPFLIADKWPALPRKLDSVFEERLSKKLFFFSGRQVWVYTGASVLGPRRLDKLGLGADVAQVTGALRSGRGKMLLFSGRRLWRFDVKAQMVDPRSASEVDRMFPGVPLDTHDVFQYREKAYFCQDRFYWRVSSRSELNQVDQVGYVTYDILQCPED

Molecule `COc1ccc(S(=O)(=O)N(CC(=O)NO)CC(C)C)cc1` [NNGH, N-Isobutyl-N-(4-methoxyphenylsulfonyl)glycyl hydroxamic acid] has an IC50 (MMP-9) of 5 nM and an IC50 (MMP-2) of 2.7 nM.
